ChEMBL document CHEMBL1201862, “PubChem BioAssay data set” (2004)
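Dose response: 5 concentrations. Exposure: 48 h. Format: 96-well plates. Endpoint: linear interpolation; highest concentration if not reached. Here, GI50 denotes the concentration required for 50% inhibition of growth.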 Calls of active or inactive are those of the source. No stated cut-off is given here; in the data, active = GI50 up to about 1.1 µM and inactive = higher.

How the values were obtained:
Test in all cases: DTP human tumour cell line panel, 48 h
U-251 = test system: U-251
NCI-H460 = test system: NCI-H460
HOP-62 = test system: HOP-62
IGROV-1 = test system: IGROV-1
SF-268 = test system: SF-268
EKVX = test system: EKVX
UO-31 = test system: UO-31
MOLT-4 = test system: MOLT-4
KM12 = test system: KM12
COLO 205 = test system: COLO 205
SK-MEL-5 = test system: SK-MEL-5
RPMI-8226 = test system: RPMI-8226
ACHN = test system: ACHN
A549 = test system: A549
NCI-H522 = test system: NCI-H522
OVCAR-5 = test system: OVCAR-5
UACC-257 = test system: UACC-257
SK-OV-3 = test system: SK-OV-3

Compound | GI50 (U-251) | GI50 (NCI-H460) | GI50 (HOP-62) | GI50 (IGROV-1) | GI50 (SF-268) | GI50 (EKVX) | GI50 (UO-31) | GI50 (MOLT-4) | GI50 (KM12) | GI50 (COLO 205) | GI50 (SK-MEL-5) | GI50 (RPMI-8226) | GI50 (ACHN) | GI50 (A549) | GI50 (NCI-H522) | GI50 (OVCAR-5) | GI50 (UACC-257) | GI50 (SK-OV-3)
Cc1ccc(S(=O)(=O)OC(c2ccc(Cl)cc2Cl)C2OC(=O)c3ccccc32)cc1 (configuration not stated) | 56.4 µM (inactive) | 35.8 µM (inactive) | > 100 µM (inactive) | 97.3 µM (inactive) | 51.3 µM (inactive) | > 100 µM (inactive) | 27.4 µM (inactive) | 30.2 µM (inactive) | 36 µM (inactive) | 83.2 µM (inactive) | 53.1 µM (inactive) | 36.7 µM (inactive) | > 100 µM (inactive) | 68.5 µM (inactive) | 57.9 µM (inactive) | > 100 µM (inactive) |  | 
CCCn1c(SCC)c2ccccc2c1-c1nc(F)nc(F)n1 | > 100 µM (inactive) | > 100 µM (inactive) | > 100 µM (inactive) |  | > 100 µM (inactive) | > 100 µM (inactive) | > 100 µM (inactive) | > 100 µM (inactive) | > 100 µM (inactive) | > 100 µM (inactive) |  | > 100 µM (inactive) | > 100 µM (inactive) | > 100 µM (inactive) | > 100 µM (inactive) | > 100 µM (inactive) |  | 
CC(=O)OCC(=O)[C@@]12OC(C)(C)O[C@@H]1C[C@H]1[C@@H]3CC(C=O)=C4C=C(OCCCl)CC[C@]4(C)[C@@]3(F)[C@@H](O)C[C@@]12C [FORMOCORTAL] | 14.2 µM (inactive) | 14.1 µM (inactive) | 24.8 µM (inactive) | 32.7 µM (inactive) | 34.9 µM (inactive) | 10.3 µM (inactive) | 32.2 µM (inactive) | 5.87 µM (inactive) | 16.7 µM (inactive) | 18 µM (inactive) |  | 2.58 µM (inactive) | > 100 µM (inactive) | 24.5 µM (inactive) | 20.3 µM (inactive) | 14.3 µM (inactive) | 23.4 µM (inactive) | 1.39 µM (inactive)
CCN1C(=O)N(C)C(O)c2c1nc1ccccn1c2=O (configuration not stated) | 30.8 µM (inactive) | 20.6 µM (inactive) | 28.1 µM (inactive) | 32.7 µM (inactive) | 25.4 µM (inactive) | 21.2 µM (inactive) | 47.6 µM (inactive) | 32.1 µM (inactive) | 36.5 µM (inactive) | 21.2 µM (inactive) |  | 27 µM (inactive) | 0.232 µM (active) | 34.2 µM (inactive) | 25.3 µM (inactive) |  | 40.1 µM (inactive) | 26.1 µM (inactive)
COc1ccc(S(=O)(=O)Nc2ccccc2C(=O)O)cc1 | > 100 µM (inactive) | > 100 µM (inactive) |  | > 100 µM (inactive) | > 100 µM (inactive) | > 100 µM (inactive) | > 100 µM (inactive) | > 100 µM (inactive) | > 100 µM (inactive) | > 100 µM (inactive) | > 100 µM (inactive) | > 100 µM (inactive) | > 100 µM (inactive) | > 100 µM (inactive) | > 100 µM (inactive) | > 100 µM (inactive) | > 100 µM (inactive) | > 100 µM (inactive)
O=C1CC(c2c(-c3ccccc3)[nH]c3ccccc23)C(=O)N1c1ccccc1 (configuration not stated) | 88.9 µM (inactive) | 56.2 µM (inactive) | 25.6 µM (inactive) | > 100 µM (inactive) |  | > 100 µM (inactive) | 25.4 µM (inactive) | 61.5 µM (inactive) | 44.4 µM (inactive) |  | 56.8 µM (inactive) | 37.6 µM (inactive) | 40.5 µM (inactive) | 41.8 µM (inactive) |  | > 100 µM (inactive) | > 100 µM (inactive) | > 100 µM (inactive)
O=C1C2C3C=C4c5ccccc5N(c5ccccc5)C4(C2C(=O)N1c1ccccc1)C1C(=O)N(c2ccccc2)C(=O)C31 (configuration not stated) | > 100 µM (inactive) | 4.05 µM (inactive) | > 100 µM (inactive) | > 10 µM (inactive) | > 100 µM (inactive) |  | > 100 µM (inactive) | 3.3 µM (inactive) | > 100 µM (inactive) | 35.6 µM (inactive) |  |  | > 100 µM (inactive) | > 100 µM (inactive) |  | > 100 µM (inactive) | 42.8 µM (inactive) | > 10 µM (inactive)
Cc1[nH]c2ccccc2c1C1Cc2ccccc2N1C(=O)/C=C\C(=O)O (configuration not stated) | 29.5 µM (inactive) | > 100 µM (inactive) | 31.3 µM (inactive) | 58.1 µM (inactive) | 36.3 µM (inactive) | 44.8 µM (inactive) | > 100 µM (inactive) | 28.4 µM (inactive) | 32.6 µM (inactive) | 30.4 µM (inactive) | 22.6 µM (inactive) |  | 96.4 µM (inactive) | > 100 µM (inactive) | 27.6 µM (inactive) | > 100 µM (inactive) | 19 µM (inactive) | > 100 µM (inactive)
COC1(OC)CC2OC1C1N=NN(C(=O)OC(C)(C)C)C21 (configuration not stated) | > 100 µM (inactive) | > 100 µM (inactive) | > 100 µM (inactive) | > 100 µM (inactive) | > 100 µM (inactive) |  | > 100 µM (inactive) | 35.2 µM (inactive) | > 100 µM (inactive) | > 100 µM (inactive) | > 100 µM (inactive) | 52.7 µM (inactive) | > 100 µM (inactive) | > 100 µM (inactive) |  | > 100 µM (inactive) | > 100 µM (inactive) | > 100 µM (inactive)
